Results from patent EP4722203A1, “3,4-DIHYDROPHTHALAZIN-1(2H)-ONE DERIVATIVE, AND PREPARATION METHOD THEREFOR AND USE THEREOF” (Academy of Military Medical Sciences, priority 2023, dated 2024).

Tests used:
Type in all cases: cell-based
RPMI-8226 cells = experiment: Antiproliferative activity, CCK-8 assay; conditions: Homo sapiens, 144 hours incubation, CCK-8, absorbance at 450 nm
Method: (§1) The cell models used in this example were human hematologic tumor cells, including NCI-H929, RPMI-8226, MV-4-11, U937 and WSU-DLCL-2. Some of the compounds of the present invention were selected to determine their inhibitory activity against the proliferation of NCI-H929, RPMI-8226, MV-4-11, U937, and WSU-DLCL-2 cells.
(§2) • ① The selected compounds were dissolved in DMSO to prepare 10 mM stock solutions. Compounds used within three months should be stored at room temperature in a desiccator; others could be stored at -20°C for long-term storage. • ② The above stock solutions and the positive reference compound pomalidomide were diluted with DMSO. Their initial concentrations were 10 µM. In the experiments of NCI-H929 and RPMI-8226 cells, 3-fold serial dilution with 11 concentration points was performed, with the lowest concentration of 0.00047 µM. The resulting solutions were shaken on a shaker for 5 minutes.
(§3) • ① The NCI-H929, RPMI-8226, MV-4-11, U937, and WSU-DLCL-2 cells in logarithmic growth phase were inoculated in a 96-well plate, 20,000 to 30,000 cells per well, and the plate was pre-cultured for 24 hours in an incubator (at 37°C and 5% CO2). • ② The culture medium in the plate was replaced, and the compounds and the positive control with corresponding concentrations were added to the plated at a volume of 50 µl. • ③ The plate was incubated for 144 hours in an incubator, then 15 µl of CCK-8 solution was added to each well, and incubated in the incubator for another 1-4 hours. • ④ The absorbance at 450 nm was measured using a microplate reader.
(§4) • ① Calculating % Inhibition: [formula] • ② Calculating IC50 value of compound and plotting dose-response curve: The IC50 value was calculated by fitting the % Inhibition and the logarithm of compound concentration to a nonlinear regression (dose response-variable slope) by using GraphPad 6.0. • Y = Bottom + (Top - Bottom) / (1 + 10^((LogIC50 - X) * HillSlope)) • X: log of inhibitor concentration; Y: % Inhibition.
(§5) After calculating % Inhibition, a dose-response curve was plotted with the logarithm of the test compound concentration as the x-axis and the average cell viability as the y-axis, and the IC50 value was obtained by fitting.

WSU-DLCL-2 cells = experiment: Antiproliferative activity, CCK-8 assay; conditions: Homo sapiens, WSUDLCL2; 144 hours incubation, CCK-8, absorbance at 450 nm
Method: as §1, §2, §3, §4, §5

NCI-H929 cells = experiment: Antiproliferative activity, CCK-8 assay; conditions: Homo sapiens, 144 hours incubation, CCK-8, absorbance at 450 nm, read-out: IC50 (µM) H-929
Method: as §1, §2, §3, §4, §5

U937 cells = experiment: Antiproliferative activity, CCK-8 assay; conditions: Homo sapiens, U-937; 144 hours incubation, CCK-8, absorbance at 450 nm
Method: as §1, §2, §3, §4, §5

MV-4-11 cells = experiment: Antiproliferative activity, CCK-8 assay; conditions: Homo sapiens, MV4-11; 144 hours incubation, CCK-8, absorbance at 450 nm
Method: as §1, §2, §3, §4, §5

[1] = test system: NCI-H929-pomalidomide-R cells; experiment: Antiproliferative activity against resistant cells, CCK-8 assay; conditions: Homo sapiens, 144 hours incubation
Method: (§6) In this example, lenalidomide-resistant human multiple myeloma cells, including NCI-H929 (NCI-H929-Lenalidomide-R) and RPMI-8226 (RPMI-8226-Lenalidomide-R), and pomalidomide-resistant human multiple myeloma cells, including NCI-H929 (NCI-H929-pomalidomide-R) and RPMI-8226 (RPMI-8226-pomalidomide-R), were selected as cell models to determine the inhibitory activity of compound I-8 of the present invention against the proliferation of the resistant cells.
(§7) • ① I-8 was dissolved in DMSO to prepare a 10 mM stock solution. Compounds used within three months should be stored at room temperature in a desiccator; others could be stored at -20°C for long-term storage. • ② The I-8 stock solution and the reference compounds lenalidomide and pomalidomide were all diluted with DMSO. Their initial concentrations were 10 µM. In the experiments of lenalidomide-resistant human multiple myeloma cells (NCI-H929 (NCI-H929-Lenalidomide-R) and RPMI-8226 (RPMI-8226-Lenalidomide-R) and pomalidomide-resistant human multiple myeloma cells (NCI-H929 (NCI-H929-pomalidomide-R) and RPMI-8226 (RPMI-8226-pomalidomide-R), 3-fold serial dilution with 11 concentration points was performed, with the lowest concentration of […]. The resulting solutions were shaken on a shaker for 5 minutes.
(§8) • ① The NCI-H929-Lenalidomide-R, RPMI-8226-Lenalidomide-R, NCI-H929-pomalidomide-R, and RPMI-8226-pomalidomide-R cells in logarithmic growth phase were inoculated in a 96-well plate, 20,000 to 30,000 cells per well, and the plate was pre-cultured for 24 hours in an incubator (at 37°C and 5% CO2). • ® The culture medium in the plate was replaced, and the compounds and the positive controls with corresponding concentrations were added to the plated at a volume of 50 µL. • ③ The plate was incubated for 144 hours in an incubator, then 15 µL of CCK-8 solution was added to each well, and the plate was incubated in the incubator for another 1-4 hours. • ④ The absorbance at 450 nm was measured using a microplate reader.
as §4, with “6.0.” for “6.0. •”, “(Top−Bottom)/(1+10^(∧)((LogIC50−X)*HillSlope)) [formula]” for “(Top - Bottom) / (1 + 10^((LogIC50 - X) * HillSlope)) •”
as §5

[2] = test system: RPMI-8226-pomalidomide-R cells; experiment: as above; conditions: Homo sapiens, 144 hours incubation
Method: as §6, §7, §8
as §4, with “6.0.” for “6.0. •”, “(Top−Bottom)/(1+10^(∧)((LogIC50−X)*HillSlope)) [formula]” for “(Top - Bottom) / (1 + 10^((LogIC50 - X) * HillSlope)) •”
as §5

[3] = test system: RPMI-8226-Lenalidomide-R cells; experiment: as above; conditions: Homo sapiens, 144 hours incubation
Method: as §6, §7, §8
as §4, with “6.0.” for “6.0. •”, “(Top−Bottom)/(1+10^(∧)((LogIC50−X)*HillSlope)) [formula]” for “(Top - Bottom) / (1 + 10^((LogIC50 - X) * HillSlope)) •”
as §5

[4] = test system: NCI-H929-Lenalidomide-R cells; experiment: as above; conditions: Homo sapiens, 144 hours incubation
Method: as §6, §7, §8
as §4, with “6.0.” for “6.0. •”, “(Top−Bottom)/(1+10^(∧)((LogIC50−X)*HillSlope)) [formula]” for “(Top - Bottom) / (1 + 10^((LogIC50 - X) * HillSlope)) •”
as §5

Row | Compound | IC50 (RPMI-8226 cells) [µM] | IC50 (WSU-DLCL-2 cells) [µM] | IC50 (NCI-H929 cells) [µM] | IC50 (U937 cells) [µM] | IC50 (MV-4-11 cells) [µM] | IC50 [1] [µM] | IC50 [2] [µM] | IC50 [3] [µM] | IC50 [4] [µM]
1 | CN1Cc2c(cccc2[N+](=O)[O-])C(=O)N1C1CCC(=O)NC1=O (centres unmarked) [I-9, 3-(3-methyl-5-nitro-1-oxo-3,4-dihydrophthalazin-2(1H)-yl)piperidin-2,6-dione] | 0.457 | 0.23 | > 10 | > 10 | 0.39 |  |  |  | 
2 | CN1Cc2cc(N)ccc2C(=O)N1C1CCC(=O)NC1=O (centres unmarked) [I-10, 3-(6-amino-3-methyl-1-oxo-3,4-dihydrophthalazin-2(1H)-yl)piperidin-2,6-dione] | 0.38 | 0.7 | 5.85 | > 10 | 0.215 |  |  |  | 
3 | CN1Cc2cc([N+](=O)[O-])ccc2C(=O)N1C1CCC(=O)NC1=O (centres unmarked) [I-11, 3-(3-methyl-6-nitro-1-oxo-3,4-dihydrophthalazin-2(1H)-yl)piperidin-2,6-dione] | 2.97 | 2.65 | 2.54 | 4.13 | 0.294 |  |  |  | 
4 | CN1Cc2c(N)cc(F)cc2C(=O)N1C1CCC(=O)NC1=O (centres unmarked) [I-12, 3-(5-amino-7-fluoro-3-methyl-1-oxo-3,4-dihydrophthalazin-2(1H)-yl)piperidin-2,6-dione] | 0.499 | 3.69 | > 10 | 2.3 | 0.874 |  |  |  | 
5 | CN1Cc2c(cc(F)cc2[N+](=O)[O-])C(=O)N1C1CCC(=O)NC1=O (centres unmarked) [I-13, 3-(7-fluoro-3-methyl-5-nitro-1-oxo-3,4-dihydrophthalazin-2(1H)-yl)piperidin-2,6-dione] | 0.204 | 0.88 | 0.85 | 1.11 | > 10 |  |  |  | 
6 | Nc1cccc2c1CN(C1CCC(=O)NC1=O)C2=O (centres unmarked) [Lenalidomide] |  |  |  |  |  | > 100 | > 100 | > 100 | > 100
